Test results as given in US9782454B2 (LONGEVITY BIOTECH, INC., priority 2010, dated 2017).
pKi: −log10 of the molar value. Each block holds one compound with its values, some of them ahead of it. No end group written: not given here.

Legend:
[1] = molecular target: AKT (Homo sapiens, UniProt P31749); conditions: read-out: Ki, competitive inhibition of histone H2B phosphorylation by AKT; cited from earlier work
[2] = molecular target: T1, VIPR2 (Homo sapiens, UniProt P41587); experiment: cAMP Hunter cell line, HitHunter cAMP XS+ assay, agonist mode; format: cell-based
T1 sequence (P41587 24-438): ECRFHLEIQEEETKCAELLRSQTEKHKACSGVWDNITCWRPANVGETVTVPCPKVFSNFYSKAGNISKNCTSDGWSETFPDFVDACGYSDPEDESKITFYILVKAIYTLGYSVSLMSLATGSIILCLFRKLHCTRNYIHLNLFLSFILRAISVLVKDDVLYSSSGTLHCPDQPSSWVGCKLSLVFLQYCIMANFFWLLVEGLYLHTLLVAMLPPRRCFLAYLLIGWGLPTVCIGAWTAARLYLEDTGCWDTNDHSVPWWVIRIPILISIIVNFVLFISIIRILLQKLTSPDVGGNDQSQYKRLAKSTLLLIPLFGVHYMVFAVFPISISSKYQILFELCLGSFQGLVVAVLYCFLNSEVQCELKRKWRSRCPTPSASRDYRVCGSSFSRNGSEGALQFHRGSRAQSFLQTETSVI
Experimental: (§1) Once it was established that the cells were healthy and growing normally, cells were passaged from flasks using cell dissociation reagent buffer and seeded into white walled clear bottom 384-well microplates for compound profiling. For profiling, cells were seeded at a density of 10,000 cells per well in a total volume of 20 μL and were allowed to adhere and recover overnight prior to compound addition. cAMP modulation was determined using the DiscoveRx HitHunter cAMP XS+ assay.
(§2) For profiling compound in agonist mode, the cells were incubated in the presence of compound at 37° C. for 30 minutes. […] After appropriate compound incubation, assay signal was generated through incubation with DiscoverX lysis cocktail according to the manufacturers standard protocol. Dose curves were plotted using GraphPad Prism or Activity Base. Percentage activity is calculated using the following formula: % Activity=100%×(mean RLU of test sample−mean RLU of vehicle control)/(mean RLU of MAX control−mean RLU of vehicle control).

[3] = molecular target: T2, VIPR1 (Homo sapiens, UniProt P32241); experiment: as above; format: cell-based; conditions: for % Activity / Mean RLU: VIPR1 cells, cAMP
T2 sequence (P32241 31-457): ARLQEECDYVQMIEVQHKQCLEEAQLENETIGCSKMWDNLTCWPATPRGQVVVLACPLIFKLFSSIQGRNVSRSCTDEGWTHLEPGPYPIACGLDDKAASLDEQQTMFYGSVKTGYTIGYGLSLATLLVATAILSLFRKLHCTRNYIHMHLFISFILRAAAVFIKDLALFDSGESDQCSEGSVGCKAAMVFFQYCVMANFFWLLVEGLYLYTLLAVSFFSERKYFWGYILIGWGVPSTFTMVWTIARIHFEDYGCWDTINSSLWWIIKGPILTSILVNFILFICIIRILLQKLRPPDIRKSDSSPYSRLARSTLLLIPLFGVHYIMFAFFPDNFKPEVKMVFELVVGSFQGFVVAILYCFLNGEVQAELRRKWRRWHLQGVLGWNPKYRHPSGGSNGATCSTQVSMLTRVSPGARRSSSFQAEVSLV
Experimental: as §1, §2

[4] = molecular target: T3, CRF2β (Homo sapiens, UniProt Q13324); conditions: cited from earlier work
T3 sequence (Q13324 1-438 isoform Q13324-2): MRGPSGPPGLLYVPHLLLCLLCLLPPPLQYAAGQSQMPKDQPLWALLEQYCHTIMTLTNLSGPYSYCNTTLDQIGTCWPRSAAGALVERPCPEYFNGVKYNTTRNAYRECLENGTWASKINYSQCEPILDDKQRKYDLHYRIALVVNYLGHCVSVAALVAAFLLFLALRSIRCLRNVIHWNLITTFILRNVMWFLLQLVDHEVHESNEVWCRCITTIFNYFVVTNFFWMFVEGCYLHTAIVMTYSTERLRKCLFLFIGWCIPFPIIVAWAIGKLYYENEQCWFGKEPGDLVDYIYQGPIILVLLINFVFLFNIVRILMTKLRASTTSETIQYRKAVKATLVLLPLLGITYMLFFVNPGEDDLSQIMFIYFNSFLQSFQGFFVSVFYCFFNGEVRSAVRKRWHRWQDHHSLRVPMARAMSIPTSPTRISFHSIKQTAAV

[5] = molecular target: T4, CRF2α (Homo sapiens, UniProt Q13324); conditions: cited from earlier work
T4 sequence (Q13324 1-411): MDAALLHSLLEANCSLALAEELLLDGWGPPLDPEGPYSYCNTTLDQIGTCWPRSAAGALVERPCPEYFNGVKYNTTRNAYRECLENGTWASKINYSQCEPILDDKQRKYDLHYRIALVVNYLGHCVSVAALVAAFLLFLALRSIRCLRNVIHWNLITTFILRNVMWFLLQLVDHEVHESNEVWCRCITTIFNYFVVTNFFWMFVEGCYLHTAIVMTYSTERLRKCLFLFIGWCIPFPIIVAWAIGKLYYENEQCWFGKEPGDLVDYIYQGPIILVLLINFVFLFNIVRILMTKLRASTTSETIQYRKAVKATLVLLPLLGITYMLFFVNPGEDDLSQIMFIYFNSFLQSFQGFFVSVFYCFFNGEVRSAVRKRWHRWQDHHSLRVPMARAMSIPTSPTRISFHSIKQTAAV

AKT, sequence (P31749 whole entry): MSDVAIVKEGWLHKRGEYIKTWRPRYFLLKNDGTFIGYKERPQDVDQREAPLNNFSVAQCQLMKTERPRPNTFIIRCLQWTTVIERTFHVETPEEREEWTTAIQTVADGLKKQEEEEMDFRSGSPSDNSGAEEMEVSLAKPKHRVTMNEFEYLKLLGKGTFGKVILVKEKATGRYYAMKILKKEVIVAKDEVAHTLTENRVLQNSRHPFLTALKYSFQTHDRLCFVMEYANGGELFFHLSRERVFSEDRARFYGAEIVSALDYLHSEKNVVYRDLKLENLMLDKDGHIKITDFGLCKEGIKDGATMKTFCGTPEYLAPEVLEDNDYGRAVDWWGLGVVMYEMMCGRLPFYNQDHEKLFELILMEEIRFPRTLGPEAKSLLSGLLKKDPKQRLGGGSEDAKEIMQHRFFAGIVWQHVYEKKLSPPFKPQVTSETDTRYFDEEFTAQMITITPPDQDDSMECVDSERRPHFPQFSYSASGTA

Compound: 5-TMR-ARKRERTYSFGHHA ({5‑TMR}-ARKRERTYSFGHHA)
- pKi [1]: 4.92

- activation of VIPR2 ([2]; FIG. 3): not activate VIPR2
- % Activity ([3]; 1.03E−07 M compound): 91.7%
- % Activity ([3]; 1.03E−08 M compound): 1.5%
- Mean RLU ([3]; 1.03E−08 M compound): 13700.0 RLU
- % Activity ([3]; 1.03E−09 M compound): −1.4%
- Mean RLU ([3]; 1.03E−09 M compound): 13500.0 RLU
- % Activity ([3]; 1.03E−10 M compound): −2.9%
- Mean RLU ([3]; 1.03E−10 M compound): 9960.0 RLU
- % Activity ([3]; 1.03E−11 M compound): −1.5%
- Mean RLU ([3]; 1.03E−11 M compound): 10500.0 RLU
- % Activity ([3]; 1.03E−12 M compound): −1.7%
- Mean RLU ([3]; 1.03E−12 M compound): 10340.0 RLU
- % Activity ([3]; 5.03E−07 M compound): 99.5%
- % Activity ([3]; 5.03E−08 M compound): 83.9%
- % Activity ([3]; 5.03E−09 M compound): 1.2%
- Mean RLU ([3]; 5.03E−09 M compound): 13200.0 RLU
- % Activity ([3]; 5.03E−10 M compound): −2.2%
- Mean RLU ([3]; 5.03E−10 M compound): 9520.0 RLU
- activation of VIPR1 ([3]; FIG. 3): fully activate VIPR1
Compound: CC[C@H](C)[C@H](NC(=O)[C@H]1CCC[C@@H]1NC(=O)[C@H](CC(N)=O)NC(=O)[C@H](CC(C)C)NC(=O)[C@H](Cc1ccc(O)cc1)NC(=O)[C@H]1CNC[C@@H]1NC(=O)[C@H](CCCCN)NC(=O)[C@@H](NC(=O)[C@H]1CCC[C@@H]1NC(=O)[C@H](CC(C)C)NC(=O)[C@H](CCC(N)=O)NC(=O)[C@H](CCCCN)NC(=O)[C@H]1CNC[C@@H]1NC(=O)[C@H](CC(C)C)NC(=O)[C@H](CCCNC(=N)N)NC(=O)[C@H]1CCC[C@@H]1NC(=O)[C@H](Cc1ccc(O)cc1)NC(=O)[C@H](CC(N)=O)NC(=O)[C@H](CC(=O)O)NC(=O)[C@@H](NC(=O)[C@H](Cc1ccccc1)NC(=O)[C@@H](NC(=O)[C@H](C)NC(=O)[C@H](CC(=O)O)NC(=O)[C@H](CO)NC(=O)[C@@H](N)Cc1c[nH]cn1)C(C)C)[C@@H](C)O)C(C)C)C(=O)N[C@@H](CC(C)C)C(=O)N[C@@H](CC(N)=O)C(N)=O [Compound 8, HSDAVFTDNYXRLZKQLXVKZYLNXILN]
- interaction with VIPR2 [2]: does not interact substantially with VIPR2

Compound: Astressin
- pKi [4]: 9.00
- pKi [5]: 8.82
